Measurements: ChEMBL document CHEMBL2177009, “The use of novel C-methylated spermidine derivatives to investigate the regulation of polyamine metabolism” (J Med Chem, 2011)

Assays:
DU-145 [1] = test: Metabolic stability in N1,N11-diethyl-norspermine pretreated human DU145 cells expressing SSAT assessed as accumulation of acetylated derivatives of compound in medium at 100 uM after 48 hrs; assay type: ADME, cell-based; settings: du-145, 48 h
DU-145 [2] = test: Metabolic stability in human DU145 cells assessed as intracellular compound/methylspermine level per ug DNA at 100 uM after 72 hrs in presence of serum amine oxidases inhibitor aminoguanidine; assay type: ADME, cell-based; settings: du-145, 72 h
DU-145 [3] = test: Metabolic stability in human DU145 cells assessed as intracellular compound/methylspermine level per ug DNA at 100 uM after 48 hrs in presence of serum amine oxidases inhibitor aminoguanidine; assay type: ADME, cell-based; settings: du-145, 48 h
DU-145 [4] = test: Metabolic stability in human DU145 cells assessed as intracellular compound/methylspermine level per ug DNA at 100 uM after 24 hrs in presence of serum amine oxidases inhibitor aminoguanidine; assay type: ADME, cell-based; settings: du-145, 24 h
DU-145 [5] = test: Metabolic stability in human DU145 cells assessed as intracellular methylspermine level per ug DNA at 100 uM after 72 hrs in presence of serum amine oxidases inhibitor aminoguanidine; assay type: ADME, cell-based; settings: du-145, 72 h
DU-145 [6] = test: Metabolic stability in human DU145 cells assessed as intracellular methylspermine level per ug DNA at 100 uM after 48 hrs in presence of serum amine oxidases inhibitor aminoguanidine; assay type: ADME, cell-based; settings: du-145, 48 h
DU-145 [7] = test: Metabolic stability in human DU145 cells assessed as intracellular methylspermine level per ug DNA at 100 uM after 24 hrs in presence of serum amine oxidases inhibitor aminoguanidine; assay type: ADME, cell-based; settings: du-145, 24 h
DU-145 [8] = test: Metabolic stability in human DU145 cells assessed as intracellular compound level per ug DNA at 100 uM after 72 hrs in presence of serum amine oxidases inhibitor aminoguanidine; assay type: ADME, cell-based; settings: du-145, 72 h
DU-145 [9] = test: Metabolic stability in human DU145 cells assessed as intracellular compound level per ug DNA at 100 uM after 48 hrs in presence of serum amine oxidases inhibitor aminoguanidine; assay type: ADME, cell-based; settings: du-145, 48 h
DU-145 [10] = test: Metabolic stability in human DU145 cells assessed as intracellular compound level per ug DNA at 100 uM after 24 hrs in presence of serum amine oxidases inhibitor aminoguanidine; assay type: ADME, cell-based; settings: du-145, 24 h
[11] = Cytotoxicity against human DU145 cells assessed as cell growth at 100 uM after 72 hrs in presence of serum amine oxidase inhibitor aminoguanidine (RVb = 49 +/- 2 pmol/10^6 cells); assay type: cell-based, DU-145; settings: read-out: Activity
DU-145 [12] = test: Effect on intracellular level of decarboxylated S-adenosyl-L-methionine in human DU145 cells assessed per million cells at 100 uM after 72 hrs in presence of serum amine oxidase inhibitor aminoguanidine and ODC inhibitor DFMO (RVb = 263 +/- 14 pmol/10^6 cells); assay type: functional
DU-145 [13] = test: Effect on intracellular level of S-adenosyl-Lmethionine in human DU145 cells assessed per million cells at 100 uM after 72 hrs in presence of serum amine oxidase inhibitor aminoguanidine and ODC inhibitor DFMO (RVb = 80 +/- 5 pmol/10^6 cells); assay type: functional
DU-145 [14] = test: Metabolic stability in human DU145 cells assessed as intracellular spermine level per ug DNA at 100 uM after 72 hrs in presence of serum amine oxidases inhibitor aminoguanidine (reference value: 154 +/- 7 pmol/ug DNA); assay type: ADME, cell-based; settings: du-145, 72 h
DU-145 [15] = test: Metabolic stability in human DU145 cells assessed as intracellular spermine level per ug DNA at 100 uM after 48 hrs in presence of serum amine oxidases inhibitor aminoguanidine (reference value: 133 +/- 4 pmol/ug DNA); assay type: ADME, cell-based; settings: du-145, 48 h
DU-145 [16] = test: Metabolic stability in human DU145 cells assessed as intracellular spermine level per ug DNA at 100 uM after 24 hrs in presence of serum amine oxidases inhibitor aminoguanidine (reference value: 122 +/- 11 pmol/ug DNA); assay type: ADME, cell-based; settings: du-145, 24 h
DU-145 [17] = test: Metabolic stability in human DU145 cells assessed as intracellular spermidine level per ug DNA at 100 uM after 72 hrs in presence of serum amine oxidases inhibitor aminoguanidine (reference value: 137 +/- 3 pmol/ug DNA); assay type: ADME, cell-based; settings: du-145, 72 h
DU-145 [18] = test: Metabolic stability in human DU145 cells assessed as intracellular spermidine level per ug DNA at 100 uM after 48 hrs in presence of serum amine oxidases inhibitor aminoguanidine (reference value: 137 +/- 5 pmol/ug DNA); assay type: ADME, cell-based; settings: du-145, 48 h
DU-145 [19] = test: Metabolic stability in human DU145 cells assessed as intracellular spermidine level per ug DNA at 100 uM after 24 hrs in presence of serum amine oxidases inhibitor aminoguanidine (reference value: 154 +/- 7 pmol/ug DNA); assay type: ADME, cell-based; settings: du-145, 24 h
DU-145 [20] = test: Metabolic stability of the compound in human DU145 cells assessed as metabolites-mediated cell toxicity at 10 uM after 48 hrs by MTT assay in presence of bovine serum amine oxidase; assay type: ADME, cell-based; settings: du-145, 48 h
[21] = target: T1, Peroxisomal N(1)-acetyl-spermine/spermidine oxidase (Homo sapiens, UniProt Q6QHF9); test: Metabolic stability of the compound assessed as human recombinant APAO-mediated compound degradation at 0.5 to 1 mM after 5 to 60 mins in presence of benzaldehyde; assay type: ADME; settings: 1000 µM
DU-145 [22] = test: Metabolic stability in human DU145 cells assessed as intracellular putrescine level per ug DNA at 100 uM after 72 hrs in presence of serum amine oxidases inhibitor aminoguanidine (reference value: 6 pmol/ug DNA); assay type: ADME, cell-based; settings: du-145, 72 h
DU-145 [23] = test: Metabolic stability in human DU145 cells assessed as intracellular putrescine level per ug DNA at 100 uM after 48 hrs in presence of serum amine oxidases inhibitor aminoguanidine (reference value: 7 +/- 1 pmol/ug DNA); assay type: ADME, cell-based; settings: du-145, 48 h
DU-145 [24] = test: Metabolic stability in human DU145 cells assessed as intracellular putrescine level per ug DNA at 100 uM after 24 hrs in presence of serum amine oxidases inhibitor aminoguanidine (reference value: 11 +/- 2 pmol/ug DNA); assay type: ADME, cell-based; settings: du-145, 24 h
[25] = target: T1, Peroxisomal N(1)-acetyl-spermine/spermidine oxidase; test: Metabolic stability of the compound assessed as human recombinant APAO-mediated compound degradation at 0.5 to 1 mM after 5 to 60 mins; assay type: ADME; settings: 1000 µM
DU-145 [26] = test: Metabolic stability in N1,N11-diethyl-norspermine pretreated human DU145 cells expressing SSAT assessed as intracellular accumulation of acetylated derivatives of compound at 100 uM after 48 hrs; assay type: ADME, cell-based; settings: du-145, 48 h
DU-145 [27] = test: Metabolic stability in human DU145 cells assessed as intracellular Ac-8-Methylspermidine level per ug DNA at 100 uM after 72 hrs in presence of serum amine oxidases inhibitor aminoguanidine; assay type: ADME, cell-based; settings: du-145, 72 h
DU-145 [28] = test: Metabolic stability in human DU145 cells assessed as intracellular Ac-8-Methylspermidine level per ug DNA at 100 uM after 48 hrs in presence of serum amine oxidases inhibitor aminoguanidine; assay type: ADME, cell-based; settings: du-145, 48 h
DU-145 [29] = test: Metabolic stability in human DU145 cells assessed as intracellular Ac-8-Methylspermidine level per ug DNA at 100 uM after 24 hrs in presence of serum amine oxidases inhibitor aminoguanidine; assay type: ADME, cell-based; settings: du-145, 24 h
DU-145 [30] = test: Metabolic stability of the compound in human DU145 cells assessed as compound metabolite-mediated cell toxicity at 100 uM after 48 hrs by MTT assay in presence of bovine serum amine oxidase; assay type: ADME, cell-based; settings: du-145, 48 h
DU-145 [31] = test: Metabolic stability in human DU145 cells expressing SSAT assessed as accumulation of acetylated derivatives of compound in medium at 100 uM after 48 hrs; assay type: ADME, cell-based; settings: du-145, 48 h

T1 sequence (Q6QHF9 whole entry): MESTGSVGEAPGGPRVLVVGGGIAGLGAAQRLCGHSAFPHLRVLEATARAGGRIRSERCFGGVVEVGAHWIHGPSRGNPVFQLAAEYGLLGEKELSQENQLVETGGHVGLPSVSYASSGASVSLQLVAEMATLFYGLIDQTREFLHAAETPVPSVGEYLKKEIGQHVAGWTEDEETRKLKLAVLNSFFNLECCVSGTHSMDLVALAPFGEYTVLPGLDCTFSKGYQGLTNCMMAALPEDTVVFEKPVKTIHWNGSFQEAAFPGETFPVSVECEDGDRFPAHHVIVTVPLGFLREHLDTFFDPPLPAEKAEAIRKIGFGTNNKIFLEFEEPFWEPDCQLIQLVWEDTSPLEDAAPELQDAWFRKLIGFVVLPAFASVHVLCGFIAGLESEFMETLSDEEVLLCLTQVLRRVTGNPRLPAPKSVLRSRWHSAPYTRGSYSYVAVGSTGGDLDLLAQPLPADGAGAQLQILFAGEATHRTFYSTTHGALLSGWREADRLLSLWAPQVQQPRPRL

Structure (SMILES)	Stability (DU-145 [1])	Drug metabolism (DU-145 [2])	Drug metabolism (DU-145 [3])	Drug metabolism (DU-145 [4])	Drug metabolism (DU-145 [5])	Drug metabolism (DU-145 [6])	Drug metabolism (DU-145 [8])	Drug metabolism (DU-145 [9])	Drug metabolism (DU-145 [10])	Drug metabolism (DU-145 [14])	Drug metabolism (DU-145 [15])	Drug metabolism (DU-145 [16])	Drug metabolism (DU-145 [17])	Drug metabolism (DU-145 [18])	Drug metabolism (DU-145 [19])	Stability [21]	viability at 72 h, 100 µM [11]	Activity (DU-145 [12])	Activity (DU-145 [13])	Stability (DU-145 [20])	further results
CC(=O)NCCCNCCCCN	Unstable	–	–	–	–	–	–	–	–	–	–	–	–	–	–	–	–	–	–	–	–
CC(CN)CNCCCCN.Cl (stereo not given)	Unstable	214 pmol	202 pmol	200 pmol	80 pmol	77 pmol	134 pmol	135 pmol	133 pmol	75 pmol	72 pmol	67 pmol	38 pmol	38 pmol/ug DNA	39 pmol/ug DNA	Unstable	86%	<5 pmol	148 pmol	Stable	Drug metabolism (DU-145 [7]): 67 pmol; Drug metabolism (DU-145 [22]): < 5 pmol; Drug metabolism (DU-145 [23]): < 5 pmol; Drug metabolism (DU-145 [24]): < 5 pmol; Stability [25]: Unstable; Stability (DU-145 [26]): Unstable
CC(CCN)NCCCCN.Cl (stereo not given)	Unstable	176 pmol	168 pmol	181 pmol	–	–	176 pmol	168 pmol	181 pmol	115 pmol	103 pmol	92 pmol	22 pmol	18 pmol/ug DNA	23 pmol/ug DNA	Stable	91%	109 pmol	149 pmol	Stable	Drug metabolism (DU-145 [24]): < 5 pmol
NCCCCNCCCN [SPERMIDINE]	Unstable	–	–	–	–	–	–	–	–	–	–	–	–	–	–	Unstable	89%	<5 pmol	126 pmol	Stable	Stability (DU-145 [30]): Unstable

The next lines start with results.

Stability (DU-145 [1])	Drug metabolism (DU-145 [2])	Drug metabolism (DU-145 [3])	Drug metabolism (DU-145 [4])	Drug metabolism (DU-145 [5])	Drug metabolism (DU-145 [6])	Drug metabolism (DU-145 [8])	Drug metabolism (DU-145 [9])	Drug metabolism (DU-145 [10])	Drug metabolism (DU-145 [14])	Drug metabolism (DU-145 [15])	Drug metabolism (DU-145 [16])	Drug metabolism (DU-145 [17])	Drug metabolism (DU-145 [18])	Drug metabolism (DU-145 [19])	Stability [21]	Structure (SMILES)	viability at 72 h, 100 µM [11]	Activity (DU-145 [12])	Activity (DU-145 [13])	Stability (DU-145 [20])	further results
Unstable	371 pmol	283 pmol	301 pmol	60 pmol	44 pmol	311 pmol	239 pmol	264 pmol	74 pmol	55 pmol	62 pmol	16 pmol	11 pmol/ug DNA	15 pmol/ug DNA	Unstable	C[C@H](N)CCNCCCCN	84%	49 pmol	177 pmol	Stable	Drug metabolism (DU-145 [7]): 37 pmol
Unstable	375 pmol	326 pmol	257 pmol	43 pmol	39 pmol	332 pmol	287 pmol	257 pmol	70 pmol	57 pmol	83 pmol	20 pmol	18 pmol/ug DNA	30 pmol/ug DNA	Unstable	CC(N)CCCNCCCN (stereo not given)	93%	60 pmol	138 pmol	Stable	Drug metabolism (DU-145 [27]): 4 pmol; Drug metabolism (DU-145 [28]): 7 pmol; Drug metabolism (DU-145 [29]): 15 pmol; Stability (DU-145 [30]): Unstable; Stability (DU-145 [31]): Unstable; Stability (DU-145 [26]): Unstable
